From ChEMBL document CHEMBL1131730, “Isolation and characterization of an active-site peptide from a sterol methyl transferase with a mechanism-based inhibitor” (Bioorg Med Chem Lett, 1999)

Columns and labels:
[1] = (§1) Rate of inactivation of sterol methyl transferase from Saccharomyces cerevisiae using mechanism based inhibitor
[2] = system: Saccharomyces cerevisiae; experiment: as §1; assay type: organism-based; settings: in vivo

SMILES: CC(C)C(C)CC[C@@H](C)C1CCC2C3=C(CCC21C)C1(C)CCC(O)CC1CC3 (some centres not stated)
- Ki [1]: 1100 nM
- Ki inact [2]: 1.52 min⁻¹
